Test results published in article PMC8673480 (Journal of medicinal chemistry, 2021).

Biological target: SARS-CoV-2 3CLpro (Severe acute respiratory syndrome coronavirus 2, UniProt P0DTD1)
Experiment: cell-based

CCCC1CCC(COC(=O)NC(CC(C)C)C(=O)NC(C=O)CC2CCNC2=O)CC1 [Compound 8b, ((1r,4R)-4-Propylcyclohexyl) methyl ((2S)-4-methyl-1-oxo-1-(((2S)-1-oxo-3-(2-oxopyrrolidin-3-yl)propan-2-yl)amino)pentan-2-yl) carbamate]
EC50: 1.03 ± 0.49 µM
